# Values of other authors, collected in PMC4433633, “A Heparan Sulfate-Binding Cell Penetrating Peptide for Tumor Targeting and Migration Inhibition” (BioMed Research International, 2015).
# Settings: ref [56]
# Text: Although CPPs as noninvasive agents have promising biomedical potential for molecular delivery, they are mostly unfeasible for in vivo researches due to nonspecificity of their highly cationic characteristic such as TAT peptide. Due to high uptake rates in vitro and relatively low specificity in vivo of most CPPs, conventional CPPs would be designed for topical applications in CPP-based delivery (Table 1). […] Although TAT peptide (46–57) de ...
sequence,measurement,value
"SYGRKKRRQRRR [TAT peptide (46–57), multifunctional CPP […]]",target specificity in vivo,low target specificity in vivo
